This is an account of results in patent US11903926B1, “Non-hormonal treatment of hot flashes” (priority 2012, dated 2024).

Each structure is given as a SMILES string. Read-outs that look alike come from different tables or passages of the source.

The subject of series [1] is women with dramatic vasomotor hot flashes and sleep disruption. The series is described as follows: Clinical study of six women with vasomotor hot flashes and sleep disruption, symptoms graded 0-4. It counts as in vivo. The settings on record: for effect on vasomotor / hot flash symptoms (in words) / effect on sleep (in words): six women, agent alone; for effect on vasomotor / hot flash symptoms (in words): versus untreated; for Hot Flash Severity: grade 0-4 (duration), average of six women; for Hot Flash Frequency: end of treatment period (up to four weeks), ropinirole 4 mg, tizanidine 4 mg, clonidine 0.1 mg, rotigotine 1 mg, pramipexole 1.5 mg, chlorpromazine 25 mg, haloperidol 1 mg, venlafaxine 75 mg, paroxetine 20 mg, gabapentin 300 mg, pregabilin 50 mg. How it is done:
Patients were on each regimen at the doses cited for up to four weeks.
Symptoms were evaluated on a scale from 0 to 4, with 0 being not affected, 1 being mild, 2 being moderate, 3 being severe, and 4 being a very severe expression of either vasomotor symptom frequency, severity, sweating, falling asleep and waking during the night for each patient and evaluated at the end of the treatment period. The findings reported are based on an average of the reported symptoms of the six women studied.
Specifically, regarding hot flash frequency, evaluation was based upon the number of hot flashes per day. The frequency of hot flashes was graded on a scale of 0-4, with 0 as none detected, 1 as 1-4/day (mild), 2 as 5-8/day (moderate), 3 as 9-12/day (severe), and 4 as more than 12/day (very severe).
The severity of the hot flashes, reflecting hot flash duration, was also graded on a scale of 0-4, with 0 being not detected, 1 being mild (less than 1 minute), 2 moderate (1-2 minutes), 3 severe (2-3 minutes), and 4 very severe (greater than 4 minutes). This evaluation reflects the duration and intensity as rated by the individual.
The sweating response was graded on a scale of 0-4 as well, with 0 being not detected, 1 being mild (minimally moist skin), 2 moderate (moisture of the skin), 3 severe (noticeable perspiration, hair, ears, neck, chest), and 4 very severe (soaking sweat).
Falling asleep was also graded on a scale of 0-4, with 0 being no issue (less than 15 minutes), 1 being mild (15-20 minutes), 2 moderate (20-40 minutes), 3 severe (40-60 minutes), and 4 very severe (greater than 60 minutes).
Wakings were graded on a scale of 0-4 as well, with 0 being not detected, 1 being mild (1-5 wakings/night), 2 moderate (5-10 wakings/night), 3 severe (10-15 wakings/night), and 4 very severe (greater than 15 wakings/night).
The D2 receptor family (D2, D3 or D4) agonists ropinirole, rotigotine and pramipexole were examined, and contrasted with D2 receptor family antagonists chlorpromazine or haloperidol. Ropinirole and pramipexole were evaluated alone and with either alpha-2-adrenergic agonist tizanidine or clonidine.
Venlafaxine, paroxetine, gabapentin, and pregabilin were also evaluated in comparison with tizanidine.

In series [2] the test system is women with menopausal symptoms including hot flashes. The settings on record: for hot flashes under existing medication: already treated for neuropathic pain and depression; for benefit in sleep cycle: standard sedative hypnotics for insomnia.
Method: The patients were treated by escalating the dose of ropinirole to 4 mg, testing the hypothesis of a dopaminergically regulated pathway within the central nervous system which impacts hot flashes.
Therefore, the initial dose provided was 1 mg at bedtime, and the dose was raised as needed, every fourth day, to a maximum of 8 mg, if needed, usually at bedtime.
Safety monitoring included making certain there were no issues with liver function, low blood pressure or unusual dreams as this was accomplished. Tizanidine could, if needed, be dosed again during the night without causing a morning “hangover” effect providing there was a four hour sleep window available.
Ropinirole titration was initiated with 0.25 mg at bedtime, and if tolerated, by escalating the dose by 0.25 mg every fourth day to a maximum of 1 mg (i.e., 0.25 mg, 0.50 mg, 0.75 mg, 1 mg), until there was reduction in both the frequency and severity of hot flashes. If higher doses were needed, then both 1 mg, or later 2 mg and both 1 and 2 mg ropinirole tablets were used along with the continued titration by 0.25 mg steps every fourth day until a maximum of 4 mg was reached.
The test system of series [3] is women with menopausal vasomotor symptoms and sleep disruption. The experiment in a line: Clinical study of eight women with menopausal vasomotor symptoms and sleep disruption, symptoms graded 1-4. It counts as in vivo. To be noted: for effect on vasomotor symptoms (in words) / effect on sleep (in words): eight women; for effect on sleep (in words): agent alone; for Hot Flash Frequency / Sweating / Wakings / Falling Asleep / Hot Flash Severity: grade 1-4, average of eight women, ropinirole 4 mg, tizanidine 4 mg, ramelteon 8 mg; for Hot Flash Frequency: at bedtime for at least four weeks; for Hot Flash Frequency / Falling Asleep / Hot Flash Severity: untreated = 4; for Sweating / Wakings / Falling Asleep / Hot Flash Severity: at least four weeks; for Sweating / Wakings: untreated = 3. How it is done: Patients were on each regimen at the doses cited for at least four weeks.
Symptoms were evaluated on a scale from 1 to 4, with 1 being mild, 2 being moderate, 3 being severe, and 4 being a very severe expression of either vasomotor symptom frequency, severity, sweating, falling asleep and wakings during the night were evaluated for each patient and evaluate at the end of the treatment period. The findings were based on an average of the reported symptoms of the eight women studied.
Specifically with respect to hot flash frequency, evaluation was based upon the number of hot flashes per day. The frequency of the hot flashes was graded on a scale of 1-4, with 1 as 1-4/day (mild), 2 as 5-8/day (moderate), 3 as 9-12/day (severe), and 4 as more than 12/day (very severe).
The severity of the hot flashes was graded on a scale of 1-4, with 1 being mild (less than 1 minute), 2 moderate (1-2 minutes), 3 severe (2-3 minutes), and 4 very severe (greater than 4 minutes). This evaluation reflects the duration and intensity as rated by the individual.
The sweating response was graded on a scale of 1-4, with 1 being mild (minimally moist skin), 2 moderate (moisture on skin), 3 severe (noticeable perspiration, hair, ears, neck, chest), and 4 very severe (soaking sweat).
Falling asleep was graded on a scale of 1-4, with 1 being mild (15-20 minutes), 2 moderate (20-40 minutes), 3 severe (40-60 minutes), and 4 very severe (greater than 60 minutes).
Wakings were graded on a scale of 1-4, with 1 being mild (1-5 wakings/night), 2 moderate (5-10 wakings/night), 3 severe (10-15 wakings/night), and 4 very severe (greater than 15 wakings/night).

Series [4] has as its system hot flashes, including vasomotor symptoms of menopause. The series is described as follows: Observed activity of D2 family agonists tested in controlling hot flashes. It counts as in vivo. To be noted: D2 family members tested to date.
[5] abbreviates: up to four weeks, untreated = 3.
[6] abbreviates: grade 0-4, average of six women, untreated = 3.
[7] abbreviates: patients of the case studies, ropinirole escalated from 0.25 mg to 4 mg at bedtime.

Take `CN(C)CCCN1c2ccccc2Sc2ccc(Cl)cc21` [Chlorpromazine, chlorpromazine]: the “effect on vasomotor / hot flash symptoms (in words)” value in series [1] is recorded as “aggravated menopausal symptoms”.

Take `Clc1cccc(Cl)c1N=C1NCCN1` [Clonidine, clonidine]: in series [1], the “effect on sleep (in words)” value was “impressive effect on sleep” and the “effect on vasomotor / hot flash symptoms (in words)” value was “very modest reduction in vasomotor symptoms”. Besides, in series [2] (patient two), the “hot flashes under existing medication” value is “developed these hot flash symptoms despite those medications”.

In the case of `NCC1(CC(=O)O)CCCCC1` [Gabapentin, gabapentin], the “effect on vasomotor / hot flash symptoms (in words)” value in series [1] is given as “reduced hot flash symptoms over untreated patients”. Further, in series [2] (patient two), the “hot flashes under existing medication” value is on record as “developed these hot flash symptoms despite those medications”.

With `O=C(CCCN1CCC(O)(c2ccc(Cl)cc2)CC1)c1ccc(F)cc1` [Haloperidol, haloperidol], in series [1], the “effect on vasomotor / hot flash symptoms (in words)” value is recorded as “aggravated menopausal symptoms”.

`Fc1ccc([C@@H]2CCNC[C@H]2COc2ccc3c(c2)OCO3)cc1` [Paroxetine, paroxetine]: the “effect on vasomotor / hot flash symptoms (in words)” value in series [1] is “reduced hot flash symptoms over untreated patients”.

Regarding `CCCN[C@H]1CCc2nc(N)sc2C1` [Pramipexole], in series [1] (setting [5]), the “Hot Flash Severity” value is listed as 0. Besides, the “Hot Flash Frequency” value in series [1] (setting [6]) turned out to be 0.

In the case of `CC(C)C[C@H](CN)CC(=O)O` [Pregabilin, pregabalin], the “effect on vasomotor / hot flash symptoms (in words)” value in series [1] is reported as “reduced hot flash symptoms over untreated patients”.

Take `CCC(=O)NCC[C@@H]1CCc2ccc3c(c21)CCO3` [Ramelteon, ramelteon]: in series [3], the “effect on vasomotor symptoms (in words)” value is recorded as “no impact on vasomotor symptoms”, the “effect on sleep (in words)” value is “only a limited impact on sleep”, the “Hot Flash Frequency” value was 4 (4 as more than 12/day (very severe)) and the Sweating is 3. Further, in series [3], the Wakings is 3 (3 severe (10-15 wakings/night)), the “Falling Asleep” value is 3 (3 severe (40-60 minutes)) and the “Hot Flash Severity” value was 4 (4 very severe (greater than 4 minutes)).

Turning to `CCCN(CCC)CCc1cccc2c1CC(=O)N2` [Ropinirole, ropinirole], in series [1] (setting [5]), the “Hot Flash Severity” value is listed as 0. The “Hot Flash Frequency” value in series [1] (setting [6]) stood at 0. In series [1], the “effect on sleep (in words)” value was “limited impact on sleep”; the “effect on vasomotor / hot flash symptoms (in words)” value was “notable reduction in frequency and severity of vasomotor symptoms”. In series [3], the “effect on vasomotor symptoms (in words)” value was “notable, but incomplete reduction in frequency and severity of vasomotor symptoms”; the “effect on sleep (in words)” value is recorded as “limited impact on sleep”; the “Hot Flash Frequency” value is 1 (1 as 1-4/day (mild)); the Sweating is reported as 1. In series [3], the Wakings was 3 (3 severe (10-15 wakings/night)), the “Falling Asleep” value was 3 (3 severe (40-60 minutes)) and the “Hot Flash Severity” value was 1 (1 being mild (less than 1 minute)). Further, the “activity in controlling hot flashes” value in series [4] is recorded as “unique activity”. Further, the side effects entry in series [2] (patient one, ropinirole 4 mg daily at bedtime with tizanidine 8 mg) is “without side effects”. Also, the “vasomotor symptoms (hot flashes)” value in series [2] (patient one, ropinirole 4 mg daily at bedtime with tizanidine 8 mg at bedtime, 15-20 hot flashes per day before) is given as “totally eliminated the vasomotor symptoms (hot flashes)”. Also, the “hot flashes on re-administration after removal” value in series [2] (patient three, ropinirole removed (symptoms returned) and re-administered at 4 mg) is “the hot flashes once again disappeared”. In series [2] (patient two, ropinirole 4 mg at bedtime with tizanidine 8 mg), the side effects result is “without untoward side effects”. The “frequency and severity of hot flashes” value in series [2] (patient two, ropinirole 4 mg at bedtime with tizanidine 8 mg at bedtime, 10-15 hot flashes per day before) is “complete resolution of the frequency and severity of the hot flashes”. In series [2] (setting [7]), the “effect on hot flashes of menopause” value is “dramatic shutdown of previously intolerable hot flashes of menopause” and the side effects result is recorded as “without side effects”.

As for `CCCN(CCc1cccs1)[C@H]1CCc2c(O)cccc2C1` [Rotigitine, rotigotine], the “Hot Flash Severity” value in series [1] (setting [5]) was determined as 0. Moreover, in series [1] (setting [6]), the “Hot Flash Frequency” value worked out at 0. Besides, the “Falling Asleep” value in series [1] (grade 0-4, average of six women, up to four weeks, untreated = 2) is given as 0 (0 being no issue (less than 15 minutes)). The Sweating in series [1] (grade 0-4, average of six women, up to four weeks, untreated = 3) worked out at 0. Besides, in series [1] (grade 0-4, average of six women, up to four weeks, untreated = 4), the Wakings is 1 (1 being mild (1-5 wakings/night)). In series [1], the “effect on sleep (in words)” value is reported as “limited impact on sleep”; the “effect on vasomotor / hot flash symptoms (in words)” value is “notable reduction in frequency and severity of vasomotor symptoms”. In series [4], the “activity in controlling hot flashes” value is listed as “unique activity”.

Regarding `Clc1ccc2nsnc2c1NC1=NCCN1` [Tizanidine, tizanidine], in series [1], the “effect on sleep (in words)” value is listed as “impressive effect on sleep” and the “effect on vasomotor / hot flash symptoms (in words)” value is given as “very modest reduction in vasomotor symptoms”. Further, in series [3], the “effect on vasomotor symptoms (in words)” value was “very modest reduction in vasomotor symptoms”, the “effect on sleep (in words)” value is given as “more impressive effect on sleep”, the “Hot Flash Frequency” value is 3 (3 as 9-12/day (severe)) and the Sweating is listed as 3. In series [3], the Wakings was 2 (2 moderate (5-10 wakings/night)), the “Falling Asleep” value is given as 2 (2 moderate (20-40 minutes)) and the “Hot Flash Severity” value is on record as 3 (3 severe (2-3 minutes)). Also, in series [2] (patient one, tizanidine 8 mg at bedtime), the sleep entry is on record as “facilitate sleep, which it did”. Also, the sleep entry in series [2] (patient three, tizanidine 1 mg raised up to 8 mg at bedtime) is listed as “able to sleep through the night”.

For `COc1ccc(C(CN(C)C)C2(O)CCCCC2)cc1` (stereo not shown) [Venlafaxine], the “effect on vasomotor / hot flash symptoms (in words)” value in series [1] was “reduced hot flash symptoms over untreated patients”. In addition, in series [2] (patient two), the “hot flashes under existing medication” value is reported as “developed these hot flash symptoms despite those medications”.

As for `CC(C)(C#N)c1cc(Cn2cncn2)cc(C(C)(C)C#N)c1` [anastrozole], the “effect on hot flashes (side effect of aromatase inhibitor)” value in series [2] (patient three, anastrozole 1 mg daily) is “exacerbated the hot flashes”.

For the compound `O=C1CN=C(c2ccccc2Cl)c2cc([N+](=O)[O-])ccc2N1` [clonazepam], the “benefit in sleep cycle” value in series [2] (patient three) is given as “no significant benefit in sleep cycle”.

With `c1cnc(N2CCN(Cc3ccc4c(c3)OCO4)CC2)nc1` [piribedil], the “activity in controlling hot flashes” value in series [4] is “unique activity”.

For the compound `CN1C(=O)C(O)N=C(c2ccccc2)c2cc(Cl)ccc21` (stereo not shown) [temazepam], in series [2] (patient three), the “benefit in sleep cycle” value was “no significant benefit in sleep cycle”.

Regarding `CCN(C(C)=O)c1cccc(-c2ccnc3c(C#N)cnn23)c1` [zaleplon], the “benefit in sleep cycle” value in series [2] (patient three) is listed as “no significant benefit in sleep cycle”.

`Cc1ccc(-c2nc3ccc(C)cn3c2CC(=O)N(C)C)cc1` [zolpidem]: in series [2] (patient three), the “benefit in sleep cycle” value was “no significant benefit in sleep cycle”.
